Data as given in patent US9206448B2, “Extraction solvents derived from oil for alcohol removal in extractive fermentation” (Butamax Advanced Biofuels LLC, priority 2010, dated 2015).
Where “and” joins values, the source holds several entries; their conditions need not be identical. Identical values can stand only once.

Experiments:
[1] = test system: strain NGCI-070; assay: Extractive fermentation, examples GLNOR661A-666A, 690A-695A, 721A-726A, 749A-754A; details: pH 5.5, fermentation broth
Protocol: (§1) Fermentation conditions: 30% pO2; temperature: 30° C.; pH 5.5 (unless noted otherwise); initial batch glucose: 20 g/L, maintained during production.
(§2) Both HPLC and GC analyses were used for the quantization of isobutanol in the aqueous phase and solvent phase respectively. Isobutanol in the aqueous was measured after filtration through a 0.2 um nylon filter with a HPLC (Agilent 1100, Agilent, Santa Clara, Calif.) under the following conditions: • Column: Bio-Rad, Aminex HPX-87H, No. 125-0143 • Mobile Phase: […] • Injection Volume: 10 uL • Flow Rate: 0.6 mL/min • Run Time: 22.5 minutes • Column Temperature: 65° C. • Detectors: Refractive Index • Detector Temperature: 40° C. • UV Detection: 210 nm, 4 nm bandwidth, Ref 360 nm, 100 nm bandwidth.
(§3) The solvent phase was measured with a GC (HP6890, Agilent, Santa Clara, Calif.) under the following conditions: • Column: J&W Scientific DB Waxter (50 m×0.32 mm ID, 1 um film) • Gas Carrier: Helium 4 mL/min • Injection Volume: 2 uL • Make Up Flow Rate: 40 mL/min • Run Time: 29 minutes • Oven Temperature: 40° C. for 5 min, 40° C. to 230° C. @10° C./min., 5 min 230° C. • Injector Split: 1:5 @ 250° C. • Flame Ionization Detection: 250° C.
(§4) The extractants were added to the fermentor broth at time zero exposing the culture to the solvent for the duration of the fermentation. Isobutanol concentrations in both the aqueous phase and organic phase were measured to calculate the partitioning coefficient of the extraction solvent. Glucose utilization was used to determine the biocompatability of the microorganism to the extractant.
(§5) The fermentations were carried out as described with the strain NGCI-065. The inoculum was prepared in two stages and incubated at 30° C. and 250 rpm in an incubator shaker (Innova 4200, New Brunswick Scientific, Edison, N.J.). The first stage or pre-seed was inoculated from a frozen glycerol seed stock, two vials were placed into a 250 mL flask with 30 mL of filter sterilized pre-seed media (Table 4) and grown for 24 hours to an OD of approximately 2. 15 mL of the pre-seed was then transferred to a 2 L flask with 270 mL of filter sterilized seed media (Table 5) for the second stage which was incubated for 24 hours. 30 mL of filter sterilized 10× YEP and 300 mL of filter sterilized 90-95% oleyl alcohol was then added and incubated for an additional 24 hours to a final OD of approximately 5-10 in the aqueous phase of the seed culture. For examples GLNOR639 and GLNOR640, the pH was 4.5.
Fermentation vessels (Applikon AD1010 Bioreactor, Applikon Biotechnology, Dover, N.J.) were sterilized with diH2O for 30 minutes (Amsco Renaissance 3033 Revas Steam Sterilizer, Steris Corporation, Mentor, Ohio). Once the vessels were finished sterilization in the autoclave and cooled to 30° C., the sterile diH2O was removed and the filter sterilized fermentation media was added to a volume of 280 mL. 70 mL of the aqueous phase from the second stage seed flasks was added to the fermentation vessel for a final aqueous volume of 350 mL. Immediately after inoculation, 100 mL of 10× YEP media supplementation was added as well as 450 mL of the respective extraction solvent for a final solvent to broth ratio of approximately 1:1. Fermentation set-point conditions were temperature 30° C., pO2 30%, pH 5.5 for GLNOR635A-638A and pH 4.5 for GLNOR639A-640A. The fermentation was sampled approximately every 8 hours from the time of inoculation to monitor glucose concentration, which was maintained between 5-20 g/L through the addition of 50% w/w glucose solution, and analyzed for isobutanol accumulation in both the aqueous phase and the extractant phase. Enough sample volume was taken at each time point to obtain a sample from both of the phases, then those samples were centrifuged in order to ensure a clean cut of each.
The examples in this set were performed the same as in the previous examples GLNOR635A-640A with the exception of the strain, pH, and supplement addition at time zero.

[2] = test system: strain NGCI-065; assay: Extractive fermentation, examples GLNOR635A-640A
Protocol: as §1, §2, §3, §4, §5
Fermentation vessels (Applikon AD1010 Bioreactor, Applikon Biotechnology, Dover, N.J.) were sterilized with diH2O for 30 minutes (Amsco Renaissance 3033 Revas Steam Sterilizer, Steris Corporation, Mentor, Ohio). Once the vessels were finished sterilization in the autoclave and cooled to 30° C., the sterile diH2O was removed and the filter sterilized fermentation media was added to a volume of 280 mL. 70 mL of the aqueous phase from the second stage seed flasks was added to the fermentation vessel for a final aqueous volume of 350 mL. […] The fermentation was sampled approximately every 8 hours from the time of inoculation to monitor glucose concentration, which was maintained between 5-20 g/L through the addition of 50% w/w glucose solution, and analyzed for isobutanol accumulation in both the aqueous phase and the extractant phase. […]

[3] = test system: Saccharomyces butanologen NGCI-070; assay: Shake flask incubation with fermentation broth, glucose consumption followed over time; type: cell-based, Saccharomyces cerevisiae; details: 3 parts broth to 1 part extractant
Protocol: Fatty amide/fatty acid aqueous ammonia preparation (1), and a preparation (1 a) constituted by preparation (1) mixed 1:1 with pure corn oil fatty acid (equivalent to 1:2 fatty amide:fatty acid) were incubated in shake flasks with fermentation broth containing the Saccharomyces butanologen NGCI-070 at a ratio of 3 parts broth to 1 part amide/acid mixture. […] Starting at a glucose concentration of 8.35 g/L, the shake flasks were then incubated for 25 h on an incubator shaker and the consumption of glucose followed as a function of time.

CCCCCCC(CO)CCCC (stereo not drawn) [Isofol ™ 12, 2-butyl-1-octanol]
Kp (solvent partition coefficient) ([1]; listed as GLNOR749): 4.05 | Kp (solvent partition coefficient) ([1]; listed as GLNOR750): 4.22

CCCCCCCC/C=C\CCCCCCCC(=O)O [Oleic Acid]
Kp (solvent partition coefficient) ([2]; pH 4.5, fermentation broth, listed as GLNOR639): 2.54 | Kp (solvent partition coefficient) ([2]; pH 4.5, fermentation broth, listed as GLNOR640): 2.51 | Kp (solvent partition coefficient) ([2]; pH 5.5, fermentation broth, listed as GLNOR637): 2.64 | Kp (solvent partition coefficient) ([2]; pH 5.5, fermentation broth, listed as GLNOR638): 2.56 | Kp (solvent partition coefficient) ([1]; listed as GLNOR665): 2.61 | Kp (solvent partition coefficient) ([1]; listed as GLNOR666): 2.51

CCCCCCCC/C=C\CCCCCCCCO [Oleyl Alcohol]
Glucose conc. ([3]; 18 hrs): 4.26 g/L and 4.46 g/L | Glucose conc. ([3]; 25 hrs): 0 g/L | Glucose conc. ([3]; Time = 0): 8.35 g/L | Kp (solvent partition coefficient) ([2]; pH 5.5, fermentation broth): 3.38 | Kp (solvent partition coefficient) ([1]; listed as GLNOR661): 3.35 | Kp (solvent partition coefficient) ([1]; listed as GLNOR690): 3.74 | Kp (solvent partition coefficient) ([1]; listed as GLNOR691): 3.77
